Measured values: PubChem BioAssay AID248 (DTP/NCI, 2004)
Values joined by “and” are separate entries in the source; they are usually repeats but may differ in a detail not shown here. Equal values may be shown once. Inconclusive results and toxic doses are left out.

Tested on: L1210 leukemia ip in BDF1 mice, survival T/C
Test: NCI In Vivo Anticancer Drug Screen. Data for tumor model L1210 Leukemia (intraperitoneal) in B6D2F1 (BDF1) mice
Settings: higher = longer survival
Procedure, shortened: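 Transplanted-tumor mice were given test agent; controls received vehicle only. Survival readings from the two groups were divided (treated over control).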

COC(=O)Nc1nc2ccc(C(=O)c3cccs3)cc2[nH]1 was tested, and the T/C (endpoint: mean survival time, dose: 10.0 mg/kg/injection, schedule: Q01DX009 (ip), vehicle: saline with Tween-80) was 102 % of control, the T/C (endpoint: mean survival time, dose: 10.0 mg/kg/injection, schedule: Q04DX003 (ip), vehicle: Klucel (hydroxypropylcellulose) (HPC)) was 98 % of control and the T/C (endpoint: mean survival time, dose: 20.0 mg/kg/injection, schedule: Q01DX009 (ip), vehicle: saline with Tween-80) was 118 % of control. For the same compound, the T/C (endpoint: mean survival time, dose: 20.0 mg/kg/injection, schedule: Q04DX003 (ip), vehicle: Klucel (hydroxypropylcellulose) (HPC)) was 101 % of control, the T/C (endpoint: mean survival time, dose: 40.0 mg/kg/injection, schedule: Q04DX003 (ip), vehicle: Klucel (hydroxypropylcellulose) (HPC)) was 107 % of control and the T/C (endpoint: mean survival time, dose: 50.0 mg/kg/injection, schedule: Q04DX003 (ip), vehicle: Klucel (hydroxypropylcellulose) (HPC)) was 108 % of control and 111 % of control. For the same compound, the T/C (endpoint: mean survival time, dose: 50.0 mg/kg/injection, schedule: Q04DX003 (ip), vehicle: saline with Tween-80) was 111 % of control, the T/C (endpoint: mean survival time, dose: 70.0 mg/kg/injection, schedule: Q04DX003 (ip), vehicle: other) was 157 % of control and the T/C (endpoint: mean survival time, dose: 75.0 mg/kg/injection, schedule: Q04DX003 (ip), vehicle: Klucel (hydroxypropylcellulose) (HPC)) was 111 % of control and 121 % of control. For the same compound, the T/C (endpoint: mean survival time, dose: 75.0 mg/kg/injection, schedule: Q04DX003 (ip), vehicle: other) was 117 % of control and 183 % of control and 210 % of control, the T/C (endpoint: mean survival time, dose: 80.0 mg/kg/injection, schedule: Q04DX003 (ip), vehicle: Klucel (hydroxypropylcellulose) (HPC)) was 94 % of control and the T/C (endpoint: mean survival time, dose: 80.0 mg/kg/injection, schedule: Q04DX003 (ip), vehicle: other) was 153 % of control. For the same compound, the T/C (endpoint: mean survival time, dose: 100.0 mg/kg/injection, schedule: Q01DX009 (oral), vehicle: saline with Tween-80) was 94 % of control, the T/C (endpoint: mean survival time, dose: 100.0 mg/kg/injection, schedule: Q04DX003 (ip), vehicle: Klucel (hydroxypropylcellulose) (HPC)) was 115 % of control and the T/C (endpoint: mean survival time, dose: 100.0 mg/kg/injection, schedule: Q04DX003 (ip), vehicle: other) was 114 % of control and 115 % of control and 89 % of control. For the same compound, the T/C (endpoint: mean survival time, dose: 100.0 mg/kg/injection, schedule: Q04DX003 (ip), vehicle: saline with Tween-80) was 155 % of control and 170 % of control, the T/C (endpoint: mean survival time, dose: 150.0 mg/kg/injection, schedule: Q04DX003 (ip), vehicle: other) was 104 % of control and the T/C (endpoint: mean survival time, dose: 160.0 mg/kg/injection, schedule: Q04DX003 (ip), vehicle: Klucel (hydroxypropylcellulose) (HPC)) was 113 % of control. The T/C (endpoint: mean survival time, dose: 200.0 mg/kg/injection, schedule: Q01DX009 (oral), vehicle: saline with Tween-80) was 96 % of control, the T/C (endpoint: mean survival time, dose: 200.0 mg/kg/injection, schedule: Q04DX003 (oral), vehicle: saline with Tween-80) was 104 % of control and the T/C (endpoint: mean survival time, dose: 400.0 mg/kg/injection, schedule: Q01DX009 (oral), vehicle: saline with Tween-80) was 100 % of control. The T/C (endpoint: mean survival time, dose: 400.0 mg/kg/injection, schedule: Q04DX003 (oral), vehicle: saline with Tween-80) was 97 % of control, the T/C (endpoint: mean survival time, dose: 600.0 mg/kg/injection, schedule: Q04DX003 (oral), vehicle: saline with Tween-80) was 104 % of control and the T/C (endpoint: mean survival time, dose: 800.0 mg/kg/injection, schedule: Q04DX003 (oral), vehicle: saline with Tween-80) was 89 % of control. The T/C (endpoint: mean survival time, dose: 1600.0 mg/kg/injection, schedule: Q04DX003 (oral), vehicle: saline with Tween-80) was 104 % of control, the T/C (endpoint: median survival time, dose: 5.0 mg/kg/injection, schedule: Q01DX009 (ip), vehicle: other) was 101 % of control and the T/C (endpoint: median survival time, dose: 7.5 mg/kg/injection, schedule: Q03HX016 (ip), vehicle: other) was 158 % of control. For the same compound, the T/C (endpoint: median survival time, dose: 7.5 mg/kg/injection, schedule: Q03HX024 (ip), vehicle: other) was 164 % of control, the T/C (endpoint: median survival time, dose: 10.0 mg/kg/injection, schedule: Q01DX009 (ip), vehicle: other) was 117 % of control and 120 % of control and the T/C (endpoint: median survival time, dose: 10.0 mg/kg/injection, schedule: Q03HX016 (ip), vehicle: other) was 158 % of control. For the same compound, the T/C (endpoint: median survival time, dose: 15.0 mg/kg/injection, schedule: Q03HX008 (ip), vehicle: other) was 177 % of control, the T/C (endpoint: median survival time, dose: 15.0 mg/kg/injection, schedule: Q03HX024 (ip), vehicle: other) was 88 % of control and the T/C (endpoint: median survival time, dose: 20.0 mg/kg/injection, schedule: Q01DX005 (ip), vehicle: other) was 151 % of control. For the same compound, the T/C (endpoint: median survival time, dose: 20.0 mg/kg/injection, schedule: Q01DX009 (ip), vehicle: other) was 121 % of control, the T/C (endpoint: median survival time, dose: 20.0 mg/kg/injection, schedule: Q08HX009 (ip), vehicle: other) was 119 % of control and the T/C (endpoint: median survival time, dose: 30.0 mg/kg/injection, schedule: Q01DX005 (ip), vehicle: other) was 153 % of control. For the same compound, the T/C (endpoint: median survival time, dose: 30.0 mg/kg/injection, schedule: Q01DX009 (ip), vehicle: other) was 157 % of control, the T/C (endpoint: median survival time, dose: 35.0 mg/kg/injection, schedule: Q04DX003 (ip), vehicle: Klucel (hydroxypropylcellulose) (HPC)) was 119 % of control and the T/C (endpoint: median survival time, dose: 35.0 mg/kg/injection, schedule: Q04DX003 (ip), vehicle: other) was 123 % of control. For the same compound, the T/C (endpoint: median survival time, dose: 40.0 mg/kg/injection, schedule: Q04DX003 (ip), vehicle: other) was 104 % of control, the T/C (endpoint: median survival time, dose: 50.0 mg/kg/injection, schedule: Q01DX005 (ip), vehicle: other) was 86 % of control and the T/C (endpoint: median survival time, dose: 50.0 mg/kg/injection, schedule: Q01DX009 (ip), vehicle: other) was 103 % of control. For the same compound, the T/C (endpoint: median survival time, dose: 50.0 mg/kg/injection, schedule: Q04DX003 (ip), vehicle: Klucel (hydroxypropylcellulose) (HPC)) was 119 % of control, the T/C (endpoint: median survival time, dose: 70.0 mg/kg/injection, schedule: Q04DX003 (ip), vehicle: Klucel (hydroxypropylcellulose) (HPC)) was 119 % of control and the T/C (endpoint: median survival time, dose: 75.0 mg/kg/injection, schedule: Q04DX003 (oral), vehicle: other) was 101 % of control. The T/C (endpoint: median survival time, dose: 80.0 mg/kg/injection, schedule: Q01DX001 (ip), vehicle: other) was 157 % of control, the T/C (endpoint: median survival time, dose: 80.0 mg/kg/injection, schedule: Q08DX002 (ip), vehicle: other) was 182 % of control and the T/C (endpoint: median survival time, dose: 90.0 mg/kg/injection, schedule: Q04DX003 (ip), vehicle: other) was 167 % of control. For the same compound, the T/C (endpoint: median survival time, dose: 100.0 mg/kg/injection, schedule: Q01DX001 (ip), vehicle: other) was 151 % of control, the T/C (endpoint: median survival time, dose: 100.0 mg/kg/injection, schedule: Q01DX009 (oral), vehicle: other) was 102 % of control and the T/C (endpoint: median survival time, dose: 100.0 mg/kg/injection, schedule: Q04DX003 (iv), vehicle: other) was 101 % of control. For the same compound, the T/C (endpoint: median survival time, dose: 130.0 mg/kg/injection, schedule: Q01DX001 (ip), vehicle: other) was 155 % of control, the T/C (endpoint: median survival time, dose: 140.0 mg/kg/injection, schedule: Q08DX002 (ip), vehicle: other) was 112 % of control and the T/C (endpoint: median survival time, dose: 150.0 mg/kg/injection, schedule: Q04DX003 (oral), vehicle: other) was 119 % of control. The T/C (endpoint: median survival time, dose: 160.0 mg/kg/injection, schedule: Q08DX002 (ip), vehicle: other) was 153 % of control, the T/C (endpoint: median survival time, dose: 200.0 mg/kg/injection, schedule: Q01DX009 (oral), vehicle: other) was 103 % of control and the T/C (endpoint: median survival time, dose: 300.0 mg/kg/injection, schedule: Q01DX009 (oral), vehicle: other) was 109 % of control. For the same compound, the T/C (endpoint: median survival time, dose: 300.0 mg/kg/injection, schedule: Q04DX003 (oral), vehicle: other) was 98 % of control, the T/C (endpoint: median survival time, dose: 400.0 mg/kg/injection, schedule: Q01DX009 (oral), vehicle: other) was 108 % of control and the T/C (endpoint: median survival time, dose: 400.0 mg/kg/injection, schedule: Q04DX003 (oral), vehicle: other) was 102 % of control. The T/C (endpoint: median survival time, dose: 500.0 mg/kg/injection, schedule: Q04DX003 (oral), vehicle: other) was 97 % of control and the T/C (endpoint: median survival time, dose: 600.0 mg/kg/injection, schedule: Q04DX003 (oral), vehicle: other) was 104 % of control.

O=C(N/N=C/c1ccc(O)cc1)C(c1ccccc1)N1CCCCC1 (centres undefined) was tested, and the T/C (endpoint: mean survival time, dose: 100.0 mg/kg/injection, schedule: Q01DX001 (ip), vehicle: other) was 102 % of control, the T/C (endpoint: mean survival time, dose: 200.0 mg/kg/injection, schedule: Q01DX001 (ip), vehicle: other) was 93 % of control and the T/C (endpoint: mean survival time, dose: 400.0 mg/kg/injection, schedule: Q01DX001 (ip), vehicle: other) was 96 % of control.

For [Tl][CH]1C=CC=C1, the T/C (endpoint: mean survival time, dose: 100.0 mg/kg/injection, schedule: Q01DX001 (ip), vehicle: acetone) was 93 % of control.

With O=C1c2cc([N+](=O)[O-])ccc2NC1(c1c[nH]c2ccccc12)c1c[nH]c2ccc(Br)cc12 (centres undefined) the T/C (endpoint: mean survival time, dose: 50.0 mg/kg/injection, schedule: Q01DX001 (ip), vehicle: saline) was 96 % of control, the T/C (endpoint: mean survival time, dose: 100.0 mg/kg/injection, schedule: Q01DX001 (ip), vehicle: saline) was 96 % of control and the T/C (endpoint: mean survival time, dose: 200.0 mg/kg/injection, schedule: Q01DX001 (ip), vehicle: saline) was 96 % of control. The T/C (endpoint: mean survival time, dose: 400.0 mg/kg/injection, schedule: Q01DX001 (ip), vehicle: saline) was 93 % of control.

For CCCCCCCC[As](C)(=O)O, the T/C (endpoint: mean survival time, dose: 6.25 mg/kg/injection, schedule: Q01DX009 (ip), vehicle: saline with Tween-80) was 89 % of control.

For Cc1ccc(-n2c(O)c(N=Nc3ccc(Br)cc3)c(=O)n(-c3ccc(Br)cc3)c2=S)cc1, the T/C (endpoint: mean survival time, dose: 50.0 mg/kg/injection, schedule: Q01DX001 (ip), vehicle: Klucel (hydroxypropylcellulose) (HPC)) was 100 % of control, the T/C (endpoint: mean survival time, dose: 100.0 mg/kg/injection, schedule: Q01DX001 (ip), vehicle: Klucel (hydroxypropylcellulose) (HPC)) was 109 % of control and the T/C (endpoint: mean survival time, dose: 200.0 mg/kg/injection, schedule: Q01DX001 (ip), vehicle: Klucel (hydroxypropylcellulose) (HPC)) was 106 % of control.

COC(=N)c1cccc(O)c1 was tested, and the T/C (endpoint: mean survival time, dose: 100.0 mg/kg/injection, schedule: Q01DX009 (ip), vehicle: saline) was 99 % of control, the T/C (endpoint: mean survival time, dose: 200.0 mg/kg/injection, schedule: Q01DX009 (ip), vehicle: saline) was 97 % of control and the T/C (endpoint: mean survival time, dose: 400.0 mg/kg/injection, schedule: Q01DX009 (ip), vehicle: saline) was 99 % of control.

For CCOC(=O)c1nc(N)[nH]c(=O)c1CCCCc1ccccc1, the T/C (endpoint: mean survival time, dose: 150.0 mg/kg/injection, schedule: Q01DX001 (ip), vehicle: saline with Tween-80) was 87 % of control and the T/C (endpoint: mean survival time, dose: 300.0 mg/kg/injection, schedule: Q01DX001 (ip), vehicle: saline with Tween-80) was 89 % of control.
